Experimental data from patent US10703756B2, “Pyrrolo[2,3-D]pyrimidinyl, pyrrolo[2,3-B]pyrazinyl, pyrrolo[2,3-B]pyridinyl acrylamides and epoxides thereof” (Pfizer Inc., priority 2015, dated 2020).
pIC50: −log10 of the molar value.

Key:
JAK3 enzyme [1] = biological target: T1, JAK3 enzyme (Homo sapiens, UniProt P52333); assay: JAK Caliper Enzyme Assay at 1 mM ATP; assay type: biochemical
T1 sequence (P52333 1-1124): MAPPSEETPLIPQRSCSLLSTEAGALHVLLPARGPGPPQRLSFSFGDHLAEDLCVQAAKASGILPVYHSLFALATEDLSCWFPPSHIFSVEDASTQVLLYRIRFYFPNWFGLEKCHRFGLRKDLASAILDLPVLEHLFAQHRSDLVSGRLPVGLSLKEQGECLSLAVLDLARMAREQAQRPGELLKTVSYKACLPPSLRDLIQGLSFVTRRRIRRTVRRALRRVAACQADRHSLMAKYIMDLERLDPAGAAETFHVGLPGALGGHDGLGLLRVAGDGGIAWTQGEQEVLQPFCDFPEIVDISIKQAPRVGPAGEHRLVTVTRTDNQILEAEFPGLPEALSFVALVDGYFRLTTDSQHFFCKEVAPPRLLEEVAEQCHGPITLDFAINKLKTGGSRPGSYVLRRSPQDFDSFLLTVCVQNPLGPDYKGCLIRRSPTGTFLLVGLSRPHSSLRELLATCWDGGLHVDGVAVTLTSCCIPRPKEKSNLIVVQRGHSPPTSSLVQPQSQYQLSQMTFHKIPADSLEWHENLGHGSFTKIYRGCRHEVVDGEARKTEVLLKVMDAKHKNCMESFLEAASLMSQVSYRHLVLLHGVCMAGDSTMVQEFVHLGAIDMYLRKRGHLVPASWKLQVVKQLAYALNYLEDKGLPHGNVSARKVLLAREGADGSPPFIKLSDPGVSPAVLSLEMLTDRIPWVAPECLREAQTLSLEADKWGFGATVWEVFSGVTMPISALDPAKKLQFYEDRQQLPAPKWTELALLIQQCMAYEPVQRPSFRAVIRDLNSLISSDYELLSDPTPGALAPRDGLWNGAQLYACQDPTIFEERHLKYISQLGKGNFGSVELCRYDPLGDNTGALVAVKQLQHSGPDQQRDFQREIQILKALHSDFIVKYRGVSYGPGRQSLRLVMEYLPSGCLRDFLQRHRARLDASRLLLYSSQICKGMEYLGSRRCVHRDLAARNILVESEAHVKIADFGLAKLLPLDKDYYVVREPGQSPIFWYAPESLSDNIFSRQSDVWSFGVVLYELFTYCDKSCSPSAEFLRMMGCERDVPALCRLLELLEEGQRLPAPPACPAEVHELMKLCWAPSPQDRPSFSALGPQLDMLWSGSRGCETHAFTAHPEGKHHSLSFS
In short: (§1)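 Peptide phosphorylation by the kinase, adjusted to 20%-30% conversion, is measured by microfluidic separation of substrate and product on a Caliper LC3000. Compounds run as 11-point half-log series from a 600 μM DMSO top concentration.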

JAK3 enzyme [2] = biological target: T1, JAK3 enzyme; assay: JAK Caliper Enzyme Assay at 4 μM ATP; assay type: biochemical
In short: as §1

[3] = system: IL-15 induced P-STAT5 in human PBMC; assay: PBMC IL-15 Induced P-STAT5; assay type: cell-based; settings: human PBMC, IL-15 final 41 ng/mL; read-out: PBMC IL15_pSTAT5_IC50
In short: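 Flow cytometry gated on total lymphocytes measured STAT5 staining (Alexa Fluor 647 antibody, overnight, 4 °C) in fixed, methanol-permeabilised human PBMC. Cells had received compound for 15 min at 37 °C (0.2% DMSO final), followed by 41 ng/mL final human IL-15 for 15 min.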

| SMILES | pIC50 (JAK3 enzyme [1]) | pIC50 (JAK3 enzyme [2]) | pIC50 [3] |
| --- | --- | --- | --- |
| C=CC(=O)N1CCC(Nc2cnc3[nH]cc(C(=O)NCc4cccc(F)c4)c3n2)CC1 [Example 176, 2-[(1-acryloylpiperidin-4-yl)amino]-N-(3-fluorobenzyl)-5H-pyrrolo[2,3-b]pyrazine-7-carboxamide] | 8.52 | 9.36 | 7.62 |
| C=CC(=O)N1CCC(Nc2cnc3[nH]cc(C(=O)NCCC4CC4)c3n2)CC1 [Example 178, 2-[(1-acryloylpiperidin-4-yl)amino]-N-(2-cyclopropylethyl)-5H-pyrrolo[2,3-b]pyrazine-7-carboxamide] | 8.22 | 9.35 | 7.05 |
| C=CC(=O)N1CCC(Nc2cnc3[nH]cc(C(=O)NCc4ccccc4)c3n2)CC1 [Example 187, 2-[(1-acryloylpiperidin-4-yl)amino]-N-benzyl-5H-pyrrolo[2,3-b]pyrazine-7-carboxamide] | 8.22 | 9.30 | 7.26 |
| C=CC(=O)N1CCC(Nc2cnc3[nH]cc(C(=O)NCc4ccc(F)cc4)c3n2)CC1 [Example 188, 2-[(1-acryloylpiperidin-4-yl)amino]-N-(4-fluorobenzyl)-5H-pyrrolo[2,3-b]pyrazine-7-carboxamide] | 8.22 | 9.29 | 7.06 |
| C=CC(=O)N1CCC(Nc2cnc3[nH]cc(C(=O)NCc4ccc(F)c(C#N)c4)c3n2)CC1 [Example 189, 2-[(1-acryloylpiperidin-4-yl)amino]-N-(3-cyano-4-fluorobenzyl)-5H-pyrrolo[2,3-b]pyrazine-7-carboxamide] | 8.22 | 9.16 | 6.69 |
| C=CC(=O)N1CCC(Nc2cnc3[nH]cc(C(=O)NCc4ccccc4F)c3n2)CC1 [Example 196, 2-[(1-acryloylpiperidin-4-yl)amino]-N-(2-fluorobenzyl)-5H-pyrrolo[2,3-b]pyrazine-7-carboxamide] | 8.30 | 9.32 | 7.26 |
| C=CC(=O)N1CCC(Oc2cnc3[nH]cc(C(=O)NC45CC(C4)C5)c3n2)CC1 [Example 200, 2-[(1-acryloylpiperidin-4-yl)oxy]-N-(bicyclo[1.1.1]pent-1-yl)-5H-pyrrolo[2,3-b]pyrazine-7-carboxamide] | 7.34 | 9.39 | 6.83 |
| C=CC(=O)N1CCC(Oc2cnc3[nH]cc(C(=O)N[C@@H](C)CC)c3n2)CC1 [Example 205, 2-[(1-acryloylpiperidin-4-yl)oxy]-N-[(2S)-butan-2-yl]-5H-pyrrolo[2,3-b]pyrazine-7-carboxamide] | 7.80 | 9.86 | 7.03 |
| C=CC(=O)N1CCC(Oc2cnc3[nH]cc(C(=O)NC(C)(C)CC)c3n2)CC1 [Example 209, 2-[(1-acryloylpiperidin-4-yl)oxy]-N-(2-methylbutan-2-yl)-5H-pyrrolo[2,3-b]pyrazine-7-carboxamide] | 7.19 | 9.22 | 6.69 |
| C=CC(=O)N1CCC(Oc2cnc3[nH]cc(C(=O)N[C@H](C)COC)c3n2)CC1 [Example 214, 2-[(1-acryloylpiperidin-4-yl)oxy]-N-[(2R)-1-methoxypropan-2-yl]-5H-pyrrolo[2,3-b]pyrazine-7-carboxamide] | 7.70 | 9.68 | 7.24 |
| C=CC(=O)N1CCC(Oc2cnc3[nH]cc(C(=O)NC4CCCC4(F)F)c3n2)CC1 (stereo not drawn) [Example 219, 2-[(1-acryloylpiperidin-4-yl)oxy]-N-(2,2-difluorocyclopentyl)-5H-pyrrolo[2,3-b)pyrazine-7-carboxamide] | 7.60 | 9.44 | 6.87 |
| C=CC(=O)N1CCC(Oc2cnc3[nH]cc(C(=O)N[C@H]4CC[C@@H](F)C4)c3n2)CC1 [Example 225, 2-[(1-acryloylpiperidin-4-yl)oxy]-N-[(1S,3R)-3-fluorocyclopentyl]-5H-pyrrolo[2,3-b]pyrazine-7-carboxamide] | 7.60 | 9.63 | 6.77 |
| C=CC(=O)N1CCC(Oc2cnc3[nH]cc(C(=O)N[C@H](C)CC)c3n2)CC1 [Example 227, 2-[(1-acryloylpiperidin-4-yl)oxy]-N-[(2R)-butan-2-yl]-5H-pyrrolo[2,3-b]pyrazine-7-carboxamide] | 7.66 | 9.55 | 6.84 |
| C=CC(=O)N1CCC(Oc2cnc3[nH]cc(C(=O)N[C@@H](C)COC)c3n2)CC1 [Example 228, 2-[(1-acryloylpiperidin-4-yl)oxy]-N-[(2S)-1-methoxypropan-2-yl]-5H-pyrrolo[2,3-b]pyrazine-7-carboxamide] | 7.74 | 9.64 | 7.03 |
| C=CC(=O)N1CCC(Oc2cnc3[nH]cc(C(=O)N[C@@H]4CCC[C@H]4F)c3n2)CC1 [Example 229, 2-[(1-acryloylpiperidin-4-yl)oxy]-N-[(1R,2R)-2-fluorocyclopentyl]-5H-pyrrolo[2,3-b]pyrazine-7-carboxamide] | 7.22 | 9.24 | 6.66 |
| C=CC(=O)N1CCC(Oc2cnc3[nH]cc(C(=O)N[C@@H]4CCC[C@@H]4F)c3n2)CC1 [Example 230, 2-[(1-acryloylpiperidin-4-yl)oxy]-N-[(1R,2S)-2-fluorocyclopentyl]-5H-pyrrolo[2,3-b]pyrazine-7-carboxamide] | 7.47 | 9.52 | 6.81 |
| C=CC(=O)N1CC[C@H](Nc2cnc3[nH]cc(C(=O)NCC4CCCC4)c3n2)[C@H](OC)C1 [Example 284, 2-{[(3R,4S)-1-acryloyl-3-methoxypiperidin-4-yl]amino}-N-(cyclopentylmethyl)-5H-pyrrolo[2,3-b]pyrazine-7-carboxamide] | 7.38 | 9.52 | 6.73 |
| C=CC(=O)N1CCN(c2cnc3[nH]cc(C(=O)NCC(C)C)c3n2)C[C@@H]1CC(C)C [Example 288, 2-[(3S)-4-acryloyl-3-(2-methylpropyl)piperazin-1-yl]-N-(2-methylpropyl)-5H-pyrrolo[2,3-b]pyrazine-7-carboxamide] | 7.24 | 9.42 | 6.82 |
| C=CC(=O)N1CC[C@H](Nc2cnc3[nH]cc(C(=O)NCC(F)(F)F)c3n2)[C@H](OC)C1 [Example 293, 2-{[(3R,4S)-1-acryloyl-3-methoxypiperidin-4-yl]amino}-N-(2,2,2-trifluoroethyl)-5H-pyrrolo[2,3-b]pyrazine-7-carboxamide] | 7.29 | 9.17 | 6.66 |
| C=CC(=O)N1CCN(c2cnc3[nH]cc(C(=O)N[C@@H](C)COC)c3n2)CC1 [Example 295, 2-(4-acryloylpiperazin-1-yl)-N-[(2S)-1-methoxypropan-2-yl]-5H-pyrrolo[2,3-b]pyrazine-7-carboxamide] | 7.54 | 9.75 | 7.15 |
| C=CC(=O)N1CCN(c2cnc3[nH]cc(C(=O)N[C@@H](C)COC)c3n2)CC1(C)C [Example 298, 2-(4-acryloyl-3,3-dimethylpiperazin-1-yl)-N-[(2S)-1-methoxypropan-2-yl]-5H-pyrrolo[2,3-b]pyrazine-7-carboxamide] | 7.16 | 9.31 | 6.68 |
| C=CC(=O)N1CCN(c2cnc3[nH]cc(C(=O)N[C@H](CC)CC#N)c3n2)C[C@@H]1CC(C)C [Example 314, 2-[(3S)-4-acryloyl-3-(2-methylpropyl)piperazin-1-yl]-N-[(2R)-1-cyanobutan-2-yl]-5H-pyrrolo[2,3-b]pyrazine-7-carboxamide] | 7.52 | 9.62 | 6.94 |
| C=CC(=O)N1CC[C@H](Nc2cnc3[nH]cc(C(=O)NCCCC(F)(F)F)c3n2)[C@H](OC)C1 [Example 319, 2-{[(3R,4S)-1-acryloyl-3-methoxypiperidin-4-yl]amino}-N-(4,4,4-trifluorobutyl)-5H-pyrrolo[2,3-b]pyrazine-7-carboxamide] | 7.35 | 9.39 | 6.68 |
